Read-outs that look alike come from different tables or passages of the source.
Assays:
Assay in all cases: HotSpot kinase profiling
Format in all cases: biochemical
HIPK3 = biological target: T1, HIPK3 (Homo sapiens, UniProt Q9H422)
T1 construct: purchased Reaction Biology Corp
In short: (§1)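 Percent inhibition, averaged when run more than once and referenced to a DMSO negative control, came from a radioactive filter-binding readout on P81 paper. Reactions of kinase with freshly made substrate and cofactors ran for 2 h at room temperature.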

MARK2/PAR-1Ba = biological target: T2, MARK2/PAR-1Ba (Homo sapiens, UniProt Q7KZI7)
T2 construct: purchased Reaction Biology Corp
T2 sequence (Q7KZI7 1-725 isoform Q7KZI7-4): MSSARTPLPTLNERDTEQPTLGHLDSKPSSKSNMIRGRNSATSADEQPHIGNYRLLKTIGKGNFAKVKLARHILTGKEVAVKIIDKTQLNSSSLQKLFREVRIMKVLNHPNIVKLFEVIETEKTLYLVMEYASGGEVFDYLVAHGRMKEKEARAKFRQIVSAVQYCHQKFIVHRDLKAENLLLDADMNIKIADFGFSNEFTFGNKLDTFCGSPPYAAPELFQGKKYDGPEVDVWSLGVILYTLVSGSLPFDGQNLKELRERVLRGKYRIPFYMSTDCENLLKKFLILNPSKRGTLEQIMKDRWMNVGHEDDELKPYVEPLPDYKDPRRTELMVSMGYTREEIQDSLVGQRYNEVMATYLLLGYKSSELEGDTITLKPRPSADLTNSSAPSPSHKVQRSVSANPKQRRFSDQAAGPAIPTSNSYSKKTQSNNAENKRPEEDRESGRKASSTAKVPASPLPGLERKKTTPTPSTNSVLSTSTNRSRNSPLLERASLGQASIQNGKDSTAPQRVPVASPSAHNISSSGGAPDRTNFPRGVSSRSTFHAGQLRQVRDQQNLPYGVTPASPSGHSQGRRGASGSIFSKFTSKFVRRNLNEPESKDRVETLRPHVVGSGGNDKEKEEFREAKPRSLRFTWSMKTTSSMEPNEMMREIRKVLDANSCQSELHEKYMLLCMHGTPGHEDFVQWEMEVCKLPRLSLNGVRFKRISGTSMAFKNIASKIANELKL
In short: as §1

DLK/MAP3K12 = biological target: T3, DLK/MAP3K12 (Homo sapiens, UniProt Q12852)
T3 construct: purchased Reaction Biology Corp
T3 sequence (Q12852 1-859): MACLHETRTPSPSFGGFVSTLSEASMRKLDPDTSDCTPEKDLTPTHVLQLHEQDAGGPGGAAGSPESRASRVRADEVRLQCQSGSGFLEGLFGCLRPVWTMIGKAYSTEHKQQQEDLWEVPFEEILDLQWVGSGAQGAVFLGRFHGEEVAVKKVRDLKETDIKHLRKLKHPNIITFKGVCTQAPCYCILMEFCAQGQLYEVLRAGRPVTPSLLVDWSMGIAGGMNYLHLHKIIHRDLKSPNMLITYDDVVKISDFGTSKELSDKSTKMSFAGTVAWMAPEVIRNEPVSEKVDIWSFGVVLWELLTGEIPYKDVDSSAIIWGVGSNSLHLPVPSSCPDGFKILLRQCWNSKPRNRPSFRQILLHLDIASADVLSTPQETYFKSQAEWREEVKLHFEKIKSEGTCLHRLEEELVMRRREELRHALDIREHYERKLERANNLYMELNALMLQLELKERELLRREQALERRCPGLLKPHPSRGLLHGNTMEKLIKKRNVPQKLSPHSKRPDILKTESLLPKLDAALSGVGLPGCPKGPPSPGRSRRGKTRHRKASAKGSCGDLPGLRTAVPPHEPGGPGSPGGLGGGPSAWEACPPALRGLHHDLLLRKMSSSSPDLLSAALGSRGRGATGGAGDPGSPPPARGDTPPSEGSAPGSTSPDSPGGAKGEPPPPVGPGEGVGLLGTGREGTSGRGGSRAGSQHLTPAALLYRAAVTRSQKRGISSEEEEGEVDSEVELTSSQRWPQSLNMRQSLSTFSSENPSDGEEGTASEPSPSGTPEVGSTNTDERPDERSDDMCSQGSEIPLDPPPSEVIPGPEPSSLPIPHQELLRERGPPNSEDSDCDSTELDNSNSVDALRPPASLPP
In short: as §1

PKG1a = biological target: T4, PKG1a (Homo sapiens, UniProt Q13976)
T4 construct: purchased Reaction Biology Corp
T4 sequence (Q13976 1-671): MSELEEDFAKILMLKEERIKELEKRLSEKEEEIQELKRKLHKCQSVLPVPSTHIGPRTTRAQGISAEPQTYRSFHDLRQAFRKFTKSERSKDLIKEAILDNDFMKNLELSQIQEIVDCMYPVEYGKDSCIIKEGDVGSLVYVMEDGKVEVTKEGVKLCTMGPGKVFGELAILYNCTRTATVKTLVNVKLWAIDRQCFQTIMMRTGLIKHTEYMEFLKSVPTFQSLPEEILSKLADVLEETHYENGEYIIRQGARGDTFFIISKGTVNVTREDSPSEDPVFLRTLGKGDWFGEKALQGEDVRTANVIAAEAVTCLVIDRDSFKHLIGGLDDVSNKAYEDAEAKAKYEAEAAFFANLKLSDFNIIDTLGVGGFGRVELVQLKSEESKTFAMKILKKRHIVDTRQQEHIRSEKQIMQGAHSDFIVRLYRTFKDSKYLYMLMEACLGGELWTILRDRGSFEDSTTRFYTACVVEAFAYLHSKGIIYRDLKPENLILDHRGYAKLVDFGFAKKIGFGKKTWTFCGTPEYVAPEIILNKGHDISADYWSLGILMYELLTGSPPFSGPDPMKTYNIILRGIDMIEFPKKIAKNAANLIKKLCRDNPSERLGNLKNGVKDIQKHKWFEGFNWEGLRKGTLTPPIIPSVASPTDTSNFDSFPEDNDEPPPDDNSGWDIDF
In short: as §1

DYRK1/DYRK1A = biological target: T5, DYRK1/DYRK1A (Homo sapiens, UniProt Q13627)
T5 construct: purchased Reaction Biology Corp

ALK1/ACVRL1 = biological target: T6, ALK1/ACVRL1 (Homo sapiens, UniProt P37023)
T6 construct: purchased Reaction Biology Corp
T6 sequence (P37023 22-503): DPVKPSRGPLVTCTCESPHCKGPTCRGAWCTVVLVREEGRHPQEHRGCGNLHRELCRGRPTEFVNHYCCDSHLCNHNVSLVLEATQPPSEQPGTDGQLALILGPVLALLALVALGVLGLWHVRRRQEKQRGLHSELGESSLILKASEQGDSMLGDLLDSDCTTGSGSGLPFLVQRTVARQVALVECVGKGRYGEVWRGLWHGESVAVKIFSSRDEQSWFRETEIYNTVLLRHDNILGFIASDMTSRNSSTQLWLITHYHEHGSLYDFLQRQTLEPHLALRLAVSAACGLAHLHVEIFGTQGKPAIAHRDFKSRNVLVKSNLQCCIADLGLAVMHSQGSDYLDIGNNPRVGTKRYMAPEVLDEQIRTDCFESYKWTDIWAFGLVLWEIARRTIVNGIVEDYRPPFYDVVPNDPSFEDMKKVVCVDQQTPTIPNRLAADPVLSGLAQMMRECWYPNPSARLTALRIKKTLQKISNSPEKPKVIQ
In short: as §1

HPK1/MAP4K1 = biological target: T7, HPK1/MAP4K1 (Homo sapiens, UniProt Q92918)
T7 construct: purchased Reaction Biology Corp
T7 sequence (Q92918 whole entry): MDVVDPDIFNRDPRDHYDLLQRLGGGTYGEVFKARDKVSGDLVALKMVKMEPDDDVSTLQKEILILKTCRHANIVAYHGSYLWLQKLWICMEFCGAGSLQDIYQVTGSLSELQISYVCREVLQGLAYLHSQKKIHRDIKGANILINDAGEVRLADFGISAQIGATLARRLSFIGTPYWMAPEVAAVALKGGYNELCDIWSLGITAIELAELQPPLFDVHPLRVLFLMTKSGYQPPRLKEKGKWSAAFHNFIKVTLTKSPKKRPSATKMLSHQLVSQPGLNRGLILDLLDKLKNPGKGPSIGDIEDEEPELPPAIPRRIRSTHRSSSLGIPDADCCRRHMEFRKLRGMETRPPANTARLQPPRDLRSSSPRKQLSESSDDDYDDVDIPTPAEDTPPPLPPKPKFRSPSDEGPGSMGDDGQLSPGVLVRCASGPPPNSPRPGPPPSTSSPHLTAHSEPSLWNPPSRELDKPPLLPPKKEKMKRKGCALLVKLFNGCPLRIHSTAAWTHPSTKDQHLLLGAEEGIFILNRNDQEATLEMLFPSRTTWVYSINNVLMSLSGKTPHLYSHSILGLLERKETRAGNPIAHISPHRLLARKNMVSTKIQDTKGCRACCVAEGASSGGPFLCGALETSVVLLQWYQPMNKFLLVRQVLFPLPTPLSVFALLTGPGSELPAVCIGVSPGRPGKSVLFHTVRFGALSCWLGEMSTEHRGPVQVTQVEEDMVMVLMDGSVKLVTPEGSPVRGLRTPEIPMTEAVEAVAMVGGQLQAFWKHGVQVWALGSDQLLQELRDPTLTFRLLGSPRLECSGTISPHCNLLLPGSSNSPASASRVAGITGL
In short: as §1

FGR = biological target: T8, FGR (Homo sapiens, UniProt P09769)
T8 construct: purchased Reaction Biology Corp
T8 sequence (P09769 whole entry): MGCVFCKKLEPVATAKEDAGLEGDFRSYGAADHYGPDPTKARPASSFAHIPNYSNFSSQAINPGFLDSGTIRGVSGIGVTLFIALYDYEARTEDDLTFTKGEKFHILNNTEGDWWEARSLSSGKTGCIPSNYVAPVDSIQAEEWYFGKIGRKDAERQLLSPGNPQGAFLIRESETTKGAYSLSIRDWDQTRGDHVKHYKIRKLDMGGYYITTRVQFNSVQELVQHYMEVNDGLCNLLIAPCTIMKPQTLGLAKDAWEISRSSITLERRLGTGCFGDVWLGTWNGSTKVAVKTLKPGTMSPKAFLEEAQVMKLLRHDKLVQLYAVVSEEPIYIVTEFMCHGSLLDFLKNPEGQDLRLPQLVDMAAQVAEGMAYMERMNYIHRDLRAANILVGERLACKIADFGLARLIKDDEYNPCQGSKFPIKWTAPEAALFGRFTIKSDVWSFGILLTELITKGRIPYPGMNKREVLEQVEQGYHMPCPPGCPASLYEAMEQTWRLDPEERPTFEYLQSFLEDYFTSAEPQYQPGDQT
In short: as §1

FYN = biological target: T9, FYN (Homo sapiens, UniProt P06241)
T9 construct: purchased Reaction Biology Corp
T9 sequence (P06241 whole entry): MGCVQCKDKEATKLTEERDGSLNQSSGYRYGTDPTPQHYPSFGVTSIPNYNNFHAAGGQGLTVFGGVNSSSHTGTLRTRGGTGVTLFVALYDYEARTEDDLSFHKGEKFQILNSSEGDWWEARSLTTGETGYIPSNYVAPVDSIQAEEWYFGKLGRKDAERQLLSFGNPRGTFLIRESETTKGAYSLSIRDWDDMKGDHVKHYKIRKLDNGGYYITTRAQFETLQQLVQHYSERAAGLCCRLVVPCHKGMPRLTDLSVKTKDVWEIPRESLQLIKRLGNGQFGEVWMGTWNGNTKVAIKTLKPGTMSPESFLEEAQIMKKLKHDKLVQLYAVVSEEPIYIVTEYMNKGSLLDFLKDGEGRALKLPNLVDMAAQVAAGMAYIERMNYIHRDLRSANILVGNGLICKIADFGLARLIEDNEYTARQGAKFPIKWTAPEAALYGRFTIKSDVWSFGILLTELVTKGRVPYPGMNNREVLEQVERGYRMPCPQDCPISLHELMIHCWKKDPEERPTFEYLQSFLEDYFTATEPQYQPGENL
In short: as §1

STK38L/NDR2 = biological target: T10, STK38L/NDR2 (Homo sapiens, UniProt Q9Y2H1)
T10 construct: purchased Reaction Biology Corp
T10 sequence (Q9Y2H1 whole entry): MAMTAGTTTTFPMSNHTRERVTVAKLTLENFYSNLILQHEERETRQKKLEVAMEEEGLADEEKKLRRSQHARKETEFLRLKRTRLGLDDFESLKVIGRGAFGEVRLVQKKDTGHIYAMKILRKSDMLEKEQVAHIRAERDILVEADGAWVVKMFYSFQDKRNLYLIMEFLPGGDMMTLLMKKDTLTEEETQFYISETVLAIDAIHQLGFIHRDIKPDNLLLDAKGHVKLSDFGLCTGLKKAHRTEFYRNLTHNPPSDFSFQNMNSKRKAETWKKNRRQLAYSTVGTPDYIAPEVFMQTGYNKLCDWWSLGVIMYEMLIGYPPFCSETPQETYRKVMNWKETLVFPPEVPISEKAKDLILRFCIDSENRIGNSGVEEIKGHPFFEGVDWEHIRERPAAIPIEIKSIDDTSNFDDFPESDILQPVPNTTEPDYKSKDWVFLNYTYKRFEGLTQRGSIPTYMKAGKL
In short: as §1

[1] = read-out: % Enzyme Activity (relative to DMSO controls) Run 1
[2] = read-out: % Enzyme Activity (relative to DMSO controls) Run 2

T1 sequence (Q9H422 whole entry): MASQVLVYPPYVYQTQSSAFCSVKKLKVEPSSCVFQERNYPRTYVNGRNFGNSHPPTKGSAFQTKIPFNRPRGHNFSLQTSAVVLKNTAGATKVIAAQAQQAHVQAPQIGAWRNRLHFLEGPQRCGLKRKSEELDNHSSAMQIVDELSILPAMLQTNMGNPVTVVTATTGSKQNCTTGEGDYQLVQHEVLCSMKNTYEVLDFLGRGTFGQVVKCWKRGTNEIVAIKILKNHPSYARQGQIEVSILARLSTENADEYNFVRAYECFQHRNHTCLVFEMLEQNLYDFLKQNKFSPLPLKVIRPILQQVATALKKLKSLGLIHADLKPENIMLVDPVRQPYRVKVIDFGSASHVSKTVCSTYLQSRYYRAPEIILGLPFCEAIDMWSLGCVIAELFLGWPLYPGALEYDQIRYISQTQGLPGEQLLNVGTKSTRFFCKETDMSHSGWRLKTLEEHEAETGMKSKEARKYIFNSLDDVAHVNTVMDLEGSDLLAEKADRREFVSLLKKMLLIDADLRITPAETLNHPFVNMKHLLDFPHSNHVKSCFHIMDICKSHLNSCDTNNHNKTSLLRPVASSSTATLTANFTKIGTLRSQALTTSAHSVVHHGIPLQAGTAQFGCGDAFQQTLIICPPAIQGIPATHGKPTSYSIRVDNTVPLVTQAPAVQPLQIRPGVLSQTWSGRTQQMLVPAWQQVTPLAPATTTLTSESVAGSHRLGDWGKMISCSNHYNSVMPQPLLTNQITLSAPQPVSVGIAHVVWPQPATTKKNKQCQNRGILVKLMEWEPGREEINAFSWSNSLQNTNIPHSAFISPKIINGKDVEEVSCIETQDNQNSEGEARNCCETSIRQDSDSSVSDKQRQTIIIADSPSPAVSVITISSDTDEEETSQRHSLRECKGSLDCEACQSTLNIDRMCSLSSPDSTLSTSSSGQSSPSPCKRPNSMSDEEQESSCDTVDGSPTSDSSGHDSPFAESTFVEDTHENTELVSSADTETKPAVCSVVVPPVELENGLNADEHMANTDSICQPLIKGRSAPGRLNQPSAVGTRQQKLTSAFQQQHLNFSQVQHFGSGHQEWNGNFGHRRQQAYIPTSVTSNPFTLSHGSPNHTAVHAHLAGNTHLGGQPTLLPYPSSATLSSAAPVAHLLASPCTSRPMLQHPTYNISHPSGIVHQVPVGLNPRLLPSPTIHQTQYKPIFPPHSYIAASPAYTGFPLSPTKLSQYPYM

C=CC(=O)Nc1cccc(Nc2nc(Nc3ccc(OCCOC)c(F)c3)ncc2F)c1 [Compound 2]
inhibition at 3 µM (HIPK3): -15.1% | remaining activity at 3 µM (HIPK3; [1]): 112% | remaining activity at 3 µM (HIPK3; [2]): 118% | inhibition at 3 µM (MARK2/PAR-1Ba): 1.3% | remaining activity at 3 µM (MARK2/PAR-1Ba; [1]): 99.6% | remaining activity at 3 µM (MARK2/PAR-1Ba; [2]): 97.8% | inhibition at 3 µM (DLK/MAP3K12): 22.8% | remaining activity at 3 µM (DLK/MAP3K12; [1]): 74.2% | remaining activity at 3 µM (DLK/MAP3K12; [2]): 80.2% | inhibition at 3 µM (PKG1a): 8.73% | remaining activity at 3 µM (PKG1a; [1]): 88% | remaining activity at 3 µM (PKG1a; [2]): 94.5% | inhibition at 3 µM (DYRK1/DYRK1A): 12% | remaining activity at 3 µM (DYRK1/DYRK1A; [1]): 87.7% | remaining activity at 3 µM (DYRK1/DYRK1A; [2]): 88.4% | inhibition at 3 µM (ALK1/ACVRL1): -24.4% | remaining activity at 3 µM (ALK1/ACVRL1; [1]): 125% | remaining activity at 3 µM (ALK1/ACVRL1; [2]): 124% | inhibition at 3 µM (HPK1/MAP4K1): 12.9% | remaining activity at 3 µM (HPK1/MAP4K1; [1]): 85.8% | remaining activity at 3 µM (HPK1/MAP4K1; [2]): 88.4% | inhibition at 3 µM (FGR): 59.9% | remaining activity at 3 µM (FGR; [1]): 39.7% | remaining activity at 3 µM (FGR; [2]): 40.5% | inhibition at 3 µM (FYN): 18.5% | remaining activity at 3 µM (FYN; [1]): 81.1% | remaining activity at 3 µM (FYN; [2]): 81.8% | inhibition at 3 µM (STK38L/NDR2): -1.33% | remaining activity at 3 µM (STK38L/NDR2; [1]): 107% | remaining activity at 3 µM (STK38L/NDR2; [2]): 96%

From patent US9492471B2, “Methods of treating a disease or disorder associated with Bruton'S Tyrosine Kinase” (Celgene Avilomics Research, Inc., priority 2013, dated 2016)
